Experimental findings from BindingDB's records for patent US20240139197 (The Wistar Institute of Anatomy and Biology, 2024) are described below.

Common to all, as to assay: Biochemical Assay
Assay [1] has as its target Lysine-specific demethylase 5B (Homo sapiens, UniProt Q9UGL1).
Assay [2] deals with Lysine-specific demethylase 5A (Homo sapiens, UniProt P29375).
In assay [3] the target is T1, Lysine-specific demethylase 4C (Homo sapiens, UniProt Q9H3R0).
T1 sequence (Q9H3R0 whole entry): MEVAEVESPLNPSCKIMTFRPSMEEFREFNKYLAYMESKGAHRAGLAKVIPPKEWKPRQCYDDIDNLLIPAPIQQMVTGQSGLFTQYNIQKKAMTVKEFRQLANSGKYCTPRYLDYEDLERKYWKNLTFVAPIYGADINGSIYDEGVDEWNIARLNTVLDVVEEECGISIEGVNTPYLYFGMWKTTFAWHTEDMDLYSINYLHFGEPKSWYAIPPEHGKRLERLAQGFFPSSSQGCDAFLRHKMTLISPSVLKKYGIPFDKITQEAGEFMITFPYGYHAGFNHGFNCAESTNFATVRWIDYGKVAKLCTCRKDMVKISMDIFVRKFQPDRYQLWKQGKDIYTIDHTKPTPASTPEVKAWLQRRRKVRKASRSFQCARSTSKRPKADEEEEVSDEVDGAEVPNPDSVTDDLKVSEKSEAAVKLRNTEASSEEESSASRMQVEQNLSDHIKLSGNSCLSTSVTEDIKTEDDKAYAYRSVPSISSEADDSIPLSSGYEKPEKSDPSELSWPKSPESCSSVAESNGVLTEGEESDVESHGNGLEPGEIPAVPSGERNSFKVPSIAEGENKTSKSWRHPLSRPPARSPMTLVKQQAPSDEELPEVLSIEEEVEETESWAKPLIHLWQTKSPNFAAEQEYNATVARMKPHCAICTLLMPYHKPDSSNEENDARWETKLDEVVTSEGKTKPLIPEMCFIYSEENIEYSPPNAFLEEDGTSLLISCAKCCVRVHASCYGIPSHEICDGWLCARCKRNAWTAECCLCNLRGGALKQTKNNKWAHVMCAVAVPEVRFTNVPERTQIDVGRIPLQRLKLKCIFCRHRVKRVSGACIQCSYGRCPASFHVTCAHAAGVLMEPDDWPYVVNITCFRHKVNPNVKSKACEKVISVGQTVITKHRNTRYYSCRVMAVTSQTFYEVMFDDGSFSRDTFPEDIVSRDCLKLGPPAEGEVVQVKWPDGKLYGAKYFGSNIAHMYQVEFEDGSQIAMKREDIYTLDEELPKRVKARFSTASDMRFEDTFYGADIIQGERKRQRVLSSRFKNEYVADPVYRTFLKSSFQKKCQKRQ

Chain of Lysine-specific demethylase 5B (Q9UGL1 whole entry): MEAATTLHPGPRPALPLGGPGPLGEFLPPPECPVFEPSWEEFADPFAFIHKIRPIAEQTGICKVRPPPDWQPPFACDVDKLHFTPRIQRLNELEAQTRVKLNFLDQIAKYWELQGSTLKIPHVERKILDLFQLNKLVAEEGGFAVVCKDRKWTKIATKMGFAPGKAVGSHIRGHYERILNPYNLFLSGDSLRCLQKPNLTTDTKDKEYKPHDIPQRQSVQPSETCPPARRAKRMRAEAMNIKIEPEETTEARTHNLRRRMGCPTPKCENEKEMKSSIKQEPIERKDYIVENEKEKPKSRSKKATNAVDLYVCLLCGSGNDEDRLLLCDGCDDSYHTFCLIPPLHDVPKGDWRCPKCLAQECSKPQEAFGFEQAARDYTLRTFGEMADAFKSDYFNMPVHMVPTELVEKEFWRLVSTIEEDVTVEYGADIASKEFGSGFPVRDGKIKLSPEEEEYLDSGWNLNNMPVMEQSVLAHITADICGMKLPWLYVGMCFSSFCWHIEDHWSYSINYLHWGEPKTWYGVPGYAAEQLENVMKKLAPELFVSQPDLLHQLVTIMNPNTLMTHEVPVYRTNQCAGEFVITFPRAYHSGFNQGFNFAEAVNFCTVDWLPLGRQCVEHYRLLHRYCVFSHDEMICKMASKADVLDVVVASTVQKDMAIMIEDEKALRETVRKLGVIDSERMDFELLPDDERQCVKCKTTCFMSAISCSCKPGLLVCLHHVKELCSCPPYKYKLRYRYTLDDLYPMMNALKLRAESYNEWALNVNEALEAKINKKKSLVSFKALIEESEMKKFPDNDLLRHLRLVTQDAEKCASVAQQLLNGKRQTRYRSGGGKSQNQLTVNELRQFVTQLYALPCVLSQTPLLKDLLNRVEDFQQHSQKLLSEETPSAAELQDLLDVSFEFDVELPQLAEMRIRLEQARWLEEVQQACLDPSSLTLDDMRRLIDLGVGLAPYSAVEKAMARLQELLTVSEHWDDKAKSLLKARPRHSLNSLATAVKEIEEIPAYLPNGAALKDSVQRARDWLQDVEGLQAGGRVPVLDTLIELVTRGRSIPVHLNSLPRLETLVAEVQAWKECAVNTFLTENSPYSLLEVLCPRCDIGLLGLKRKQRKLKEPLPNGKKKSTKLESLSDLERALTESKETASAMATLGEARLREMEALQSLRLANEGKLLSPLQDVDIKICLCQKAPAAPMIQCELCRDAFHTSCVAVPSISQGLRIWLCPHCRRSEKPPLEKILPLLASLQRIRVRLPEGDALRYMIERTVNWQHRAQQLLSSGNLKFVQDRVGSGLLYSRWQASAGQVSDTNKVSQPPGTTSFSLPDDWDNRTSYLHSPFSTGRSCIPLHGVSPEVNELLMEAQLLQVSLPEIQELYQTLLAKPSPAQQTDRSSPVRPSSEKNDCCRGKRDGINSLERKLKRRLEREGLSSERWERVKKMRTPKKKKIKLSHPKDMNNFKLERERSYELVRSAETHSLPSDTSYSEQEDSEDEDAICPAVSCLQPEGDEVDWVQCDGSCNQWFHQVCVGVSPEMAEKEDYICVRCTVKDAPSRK
Chain of Lysine-specific demethylase 5A (P29375 whole entry): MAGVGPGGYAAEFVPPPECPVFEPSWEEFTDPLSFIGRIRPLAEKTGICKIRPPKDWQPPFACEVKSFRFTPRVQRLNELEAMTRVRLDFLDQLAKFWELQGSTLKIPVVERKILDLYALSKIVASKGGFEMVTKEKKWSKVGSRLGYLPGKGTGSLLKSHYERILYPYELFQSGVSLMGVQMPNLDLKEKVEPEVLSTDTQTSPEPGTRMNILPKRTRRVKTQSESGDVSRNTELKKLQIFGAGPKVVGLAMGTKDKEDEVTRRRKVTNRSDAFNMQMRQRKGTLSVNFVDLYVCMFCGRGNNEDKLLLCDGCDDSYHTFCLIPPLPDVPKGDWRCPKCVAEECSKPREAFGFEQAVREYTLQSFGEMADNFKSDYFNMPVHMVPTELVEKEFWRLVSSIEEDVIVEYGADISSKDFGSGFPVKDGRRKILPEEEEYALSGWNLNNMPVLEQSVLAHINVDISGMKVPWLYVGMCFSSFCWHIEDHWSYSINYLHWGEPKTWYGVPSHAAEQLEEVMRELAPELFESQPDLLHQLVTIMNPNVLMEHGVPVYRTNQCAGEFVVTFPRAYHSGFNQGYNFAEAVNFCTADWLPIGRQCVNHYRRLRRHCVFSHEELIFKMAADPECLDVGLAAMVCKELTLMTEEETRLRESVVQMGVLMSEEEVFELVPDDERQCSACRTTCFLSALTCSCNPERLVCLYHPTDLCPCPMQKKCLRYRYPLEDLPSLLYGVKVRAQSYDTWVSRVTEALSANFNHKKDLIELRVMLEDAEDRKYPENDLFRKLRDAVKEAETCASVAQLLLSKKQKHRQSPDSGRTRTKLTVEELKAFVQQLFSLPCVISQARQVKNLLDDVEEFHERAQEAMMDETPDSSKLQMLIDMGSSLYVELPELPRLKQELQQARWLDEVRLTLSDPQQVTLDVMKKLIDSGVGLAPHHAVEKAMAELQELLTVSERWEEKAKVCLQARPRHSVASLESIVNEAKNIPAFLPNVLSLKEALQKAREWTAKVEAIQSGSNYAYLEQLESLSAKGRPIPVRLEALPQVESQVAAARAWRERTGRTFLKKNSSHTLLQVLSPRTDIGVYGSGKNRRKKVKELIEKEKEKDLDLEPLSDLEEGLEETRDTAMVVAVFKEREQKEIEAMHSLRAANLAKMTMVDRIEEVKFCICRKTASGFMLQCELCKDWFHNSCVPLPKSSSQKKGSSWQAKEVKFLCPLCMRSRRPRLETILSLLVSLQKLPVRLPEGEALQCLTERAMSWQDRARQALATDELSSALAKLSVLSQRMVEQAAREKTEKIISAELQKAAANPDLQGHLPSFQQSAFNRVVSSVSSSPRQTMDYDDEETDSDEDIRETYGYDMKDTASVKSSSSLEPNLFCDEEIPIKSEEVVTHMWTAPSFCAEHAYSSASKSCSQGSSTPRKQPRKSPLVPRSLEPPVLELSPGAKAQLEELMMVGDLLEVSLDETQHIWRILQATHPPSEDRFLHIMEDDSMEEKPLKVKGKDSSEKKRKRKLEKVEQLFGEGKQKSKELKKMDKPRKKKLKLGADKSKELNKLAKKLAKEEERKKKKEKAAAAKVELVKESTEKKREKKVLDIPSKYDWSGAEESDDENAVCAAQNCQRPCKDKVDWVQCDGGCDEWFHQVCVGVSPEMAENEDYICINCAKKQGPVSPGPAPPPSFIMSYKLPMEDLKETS

What is called IC50 is the point on the concentration scale where inhibition reaches its midpoint. Low readings indicate greater potency in that assay, high ones weaker potency in that assay. Turning to `O=C(O)c1ccnc(-n2nccc2OCc2ccc(Cl)cc2OCC2CC2)c1` [US20240139197, Compound 36], the values for the IC50 in assay [1] and in assay [2] were 36 nM and 25 nM, respectively.
Consider `COc1cc(Cl)ccc1COc1ccnn1-c1cc(C(=O)O)ccn1` [US20240139197, Compound 34], for which the IC50 in assay [1] was determined as 3 nM.
Turning to `Bc1cc(Cl)ccc1COc1ccnn1-c1cc(C(=O)O)ccn1` [US20240139197, Compound 21], the half-maximal inhibitory concentration (IC50) in assay [1] came out at 4 nM; in assay [3], 54 nM; in assay [2], 14 nM.
For `CC(C)c1c[nH]c2c(C#N)cnn2c1=O` [US20240139197, Compound 7], in assay [2], the concentration for half-maximal inhibition (IC50) came out at 170 nM.
Same read-out and setting: then `CCOc1cc(Cl)ccc1COc1ccnn1-c1cc(C(=O)O)ccn1` [US20240139197, Compound 35], with 18 nM.
